From article PMC11674141, “Antimicrobial activity and synergistic effect of phage-encoded antimicrobial peptides with colistin and outer membrane permeabilizing agents against Acinetobacter baumannii” (PeerJ, 2024)
Where two headings read alike, the source gives them in different places. Where a SMILES comes first, the peptide text is derived from it. Bridges are numbered along the chain shown (N, C = ends). Where no end group is shown, it is not given here. [ ]: non-standard residue; d: D form. The star is where a group is joined. X1 = CC[C@H](C)CCCCC(=O)*; Dab = NCC[C@H](N)C(=O)O

How the values were obtained:
[1] = tested on: MDR-AB, XDR-AB
[2] = tested on: A. baumannii ATCC19606; settings: for MIC values of outer membrane permeabilizers and colistin: A. baumannii 19606; for Minimum Inhibitory Concentration (MIC): A. baumannii 19606, sensitive
[3] = tested on: A. baumannii ATCC19606
[4] = tested on: Pseudomonas aeruginosa; settings: P. aeruginosa, sensitive
[5] = tested on: HepG2 cell line; test: MTT cell viability assay; type: cell-based, human; set-up: key to Mean cell viability (Mean 2; control = 100): % viability relative to control (control = 100%); settings: for Mean cell viability (Mean 2; control = 100): mean of n = 3
Procedure: We aimed to determine the effects of peptides on cell viability and proliferation in the human hepatocellular carcinoma HepG2 cell line. The MTT assay was performed as described by [Muangpat et al. (2022)] with some modifications. The cells were cultured in Dulbecco’s Modified Eagle Medium (DMEM; Sigma-Aldrich, St. Louis, MO, USA), supplemented with 10% fetal bovine serum (FBS), 100 U/ml penicillin, and 100 μg/ml streptomycin at 37 °C in 5% CO^2 and 95% humidity. The cells were seeded into a 96-well plate at a density of 1 × 10^4 cells/well and allowed to adhere overnight. Then, the cells were exposed for 24 h to various concentrations of peptides. The control cells were cultured in complete DMEM medium containing 0.2% DMSO. After the 24-h incubation period, 20 μL of MTT solution (5 mg/mL in PBS) (Tokyo Chemical Industry Co., Ltd., Tokyo, Japan) was added to each well and incubated for another 2 h at 37 °C. The culture medium was then removed, and formazan crystals formed by viable cells were dissolved in 100 μL of DMSO before measuring the absorbance at 590 nm using a microplate spectrophotometer. The effect of the peptide on cell viability was calculated as a percentage of the control, which was arbitrarily assigned a value of 100% viability. The percentage of cell viability was calculated relative to the control group. The IC₅₀ of the peptides was defined as the concentration that caused a 50% reduction in cell viability compared with the control. The MTT assay was conducted in three independent experiments, each with triplicate wells per condition.

[6] = tested on: Escherichia coli; settings: E. coli, sensitive
[7] = tested on: Bacillus subtilis; settings: B. subtilis, sensitive
[8] = tested on: Staphylococcus aureus; settings: S. aureus, sensitive
[9] = tested on: twenty biofilm-forming A. baumannii strains; test: Inhibition of biofilm formation (crystal violet); type: cell-based, Acinetobacter baumannii; set-up: Percent biofilm forming inhibition: concentration or dose not given beside the values; settings: for average percent inhibition of biofilm formation: twenty A. baumannii strains, peptide at MIC (312.5, 156.25, 156.25 µg/mL), 24 h, crystal violet OD595
Procedure: We determined the ability of peptides to inhibit biofilm formation in twenty biofilm-forming strains using the method described by [Karyne et al. (2020)] with some modifications. Briefly, biofilm-forming strains of A. baumannii were adjusted to an equivalent of the 0.5 McFarland standard in 2× Luria Bertani (LB) broth supplemented with 20% glucose. Then, 50 µL of A. baumannii and 50 µL of peptides were added. […] The plates were incubated overnight at 37 °C. After 24 h of incubation, the culture medium was gently removed, and the wells were washed three times with phosphate-buffered saline. The adherent cells were fixed with absolute methanol for 10 min, stained with 0.4% crystal violet for 15 min, and washed three times with sterile distilled water, then air-dried. The plates were then filled with 250 µL of 33% acetic acid for 15 min. The absorbance at OD595 nm was determined. All experiments were performed in three independent assays, each repeated in triplicate, and the percentage of biofilm reduction was calculated based on treated wells vs. non-treated wells.

[10] = tested on: Klebsiella pneumoniae; settings: K. pneumoniae, sensitive
[11] = microdilution, triplicate samples
[12] = peptide concentration 25 (unit not given)
[13] = peptide concentration 50 (unit not given)
[14] = peptide concentration 156.25 (unit not given)
[15] = peptide concentration 300 (unit not given)
[16] = peptide concentration 600 (unit not given)
[17] = peptide concentration 800 (unit not given)
[18] = A. baumannii 19,606, microdilution, MHB, 37 °C overnight, triplicate samples

Compound: CC[C@H](C)CCCCC(=O)N[C@@H](CCN)C(=O)N[C@H](C(=O)N[C@@H](CCN)C(=O)N[C@H]1CCNC(=O)[C@H]([C@@H](C)O)NC(=O)[C@H](CCN)NC(=O)[C@H](CCN)NC(=O)[C@H](CC(C)C)NC(=O)[C@@H](CC(C)C)NC(=O)[C@H](CCN)NC1=O)[C@@H](C)O [Colistin] (X1-[Dab]T[Dab][Dab][Dab][dL]L[Dab][Dab]T; lactam 4-C (inferred); N-terminus assumed)
- Colistin Resistance MIC ([1]; strain AB57, XDR-AB / CR-AB): 1 µg/mL
- Colistin Resistance MIC ([1]; strain AB59, XDR-AB / CR-AB): 0.5 µg/mL
- Colistin Resistance MIC ([1]; strain AB329, XDR-AB / CR-AB): 1 µg/mL
- Colistin Resistance MIC ([1]; strain CR65-40, MDR-AB / CR-AB): 8 µg/mL
- Colistin Resistance MIC ([1]; strain CR65-43, XDR-AB / CR-AB): 4 µg/mL
- Colistin Resistance MIC ([1]; strain CR65-47, MDR-AB / CR-AB): 2 µg/mL
- Colistin Resistance MIC ([1]; strain CR65-51, XDR-AB / CR-AB): 2 µg/mL
- Colistin Resistance MIC ([1]; strain CR65-55, MDR-AB / CR-AB): 2 µg/mL
- Colistin Resistance MIC ([1]; strain CR65-71, MDR-AB / CR-AB): 4 µg/mL
- Colistin Resistance MIC ([1]; strain CR65-74, XDR-AB / CR-AB): 2 µg/mL
- MIC values of outer membrane permeabilizers and colistin [2, 11]: 2 µg/mL
- MIC alone ([3]; ATCC19606, checkerboard, agent alone): 2 µg/mL

Compound: KIAIQIAIKGMLNGWFTGVGFRRKR [PE04-2]
- Minimum Inhibitory Concentration (MIC) [4]: 312.5 µg/mL
- IC50 (reduction of viable cells to 50%) ([5]; 24 h, three independent experiments): 424.1 µg/mL
- Mean cell viability (Mean 2; control = 100) [5, 12]: 90.16
- Mean cell viability (Mean 2; control = 100) [5, 13]: 91.63
- Mean cell viability (Mean 2; control = 100) [5, 14]: 79.64
- Mean cell viability (Mean 2; control = 100) [5, 15]: 71.67
- Mean cell viability (Mean 2; control = 100) [5, 16]: 32.89
- Mean cell viability (Mean 2; control = 100) [5, 17]: 14.6
- Minimum Inhibitory Concentration (MIC) [6]: 156.25 µg/mL
- Minimum Inhibitory Concentration (MIC) [7]: 39.06 µg/mL
- Minimum Inhibitory Concentration (MIC) ([1]; strain AB003, MDR-AB): 78.12 µg/mL
- Minimum Inhibitory Concentration (MIC) ([1]; strain AB183, XDR-AB): 78.12 µg/mL
- Minimum Inhibitory Concentration (MIC) ([1]; strain AB329, XDR-AB): 156.25 µg/mL
- Minimum Inhibitory Concentration (MIC) ([1]; strain CR89, MDR-AB): 156.25 µg/mL
- Minimum Inhibitory Concentration (MIC) [8]: 39.06 µg/mL
- Percent biofilm forming inhibition ([9]; strain AB57, XDR-AB / CR-AB, 2013): 92.3659%
- Percent biofilm forming inhibition ([9]; strain AB263, MDR-AB, 2014): 88.4382%
- average percent inhibition of biofilm formation [9]: 91.92%
- Minimum Inhibitory Concentration (MIC) [2]: 156.25 µg/mL
- MIC values [2, 18]: 156.25 µg/mL
- MIC (ATCC19606) ([2]; A. baumannii ATCC19606): 156.25 µg/mL
- FIC index, peptide plus colistin ([3]; ATCC19606): 0.14
- FICI ([3]; ATCC19606): 0.25
- Minimum Inhibitory Concentration (MIC) [10]: 312.5 µg/mL

Compound: KRQTLADKKERKKFHDGLMLNDNIR [PIN02]
- MIC (ATCC19606) ([2]; ATCC19606): > 5000 µg/mL
- MIC values ([2]; ATCC19606): >5,000 ug/ml

Compound: O=C(O)CC(O)C(=O)O (racemic) [DL-Malic acid, reference compound]
- MIC values of outer membrane permeabilizers and colistin [2, 11]: 2500 µg/mL

Compound: ENMRNRKWNSTDTVMRRSRFQRYLR [PTTPAT04]
- MIC values [2, 18]: 2,500 ug/ml
- MIC (ATCC19606) ([2]; A. baumannii ATCC19606): 2500 µg/mL

Compound: LIAIQIAIKGMLNGWFTGVGFRRKR-NH2 [PE04-1(NH2)]
- Minimum Inhibitory Concentration (MIC) [4]: 2500 µg/mL
- Mean cell viability (Mean 2; control = 100) [5, 12]: 94.88
- Mean cell viability (Mean 2; control = 100) [5, 13]: 86.43
- Mean cell viability (Mean 2; control = 100) [5, 14]: 81.93
- Mean cell viability (Mean 2; control = 100) [5, 15]: 76.66
- Mean cell viability (Mean 2; control = 100) [5, 16]: 49.65
- Mean cell viability (Mean 2; control = 100) [5, 17]: 28.83
- Minimum Inhibitory Concentration (MIC) [6]: 156.25 µg/mL
- Minimum Inhibitory Concentration (MIC) [7]: 19.531 µg/mL
- Minimum Inhibitory Concentration (MIC) ([1]; strain AB003, MDR-AB): 156.25 µg/mL
- Minimum Inhibitory Concentration (MIC) ([1]; strain AB183, XDR-AB): 156.25 µg/mL
- Minimum Inhibitory Concentration (MIC) ([1]; strain AB329, XDR-AB): 312.5 µg/mL
- Minimum Inhibitory Concentration (MIC) ([1]; strain CR89, MDR-AB): 312.5 µg/mL
- Minimum Inhibitory Concentration (MIC) [8]: 39.06 µg/mL
- Percent biofilm forming inhibition ([9]; strain AB263, MDR-AB, 2014): 89.6713%
- average percent inhibition of biofilm formation [9]: 75.51%
- Minimum Inhibitory Concentration (MIC) [2]: 156.25 µg/mL
- MIC values [2, 18]: 156.25 µg/mL
- MIC (ATCC19606) ([2]; A. baumannii ATCC19606): 156.25 µg/mL
- FIC index, peptide plus colistin ([3]; ATCC19606): 0.19
- Minimum Inhibitory Concentration (MIC) [10]: 625 µg/mL

Compound: WNKGRVKGKLEVIPGLTNRRKKEKA [PE02-2]
- MIC (ATCC19606) ([2]; ATCC19606): 1250 µg/mL
- MIC values ([2]; ATCC19606): 1,250 ug/ml
